# Molecular target: T1, Savinase® 16.0L (Lederbergia lenta, UniProt P29600)
# T1 construct: purchased Sigma-Aldrich
# T1 sequence (P29600 1-269): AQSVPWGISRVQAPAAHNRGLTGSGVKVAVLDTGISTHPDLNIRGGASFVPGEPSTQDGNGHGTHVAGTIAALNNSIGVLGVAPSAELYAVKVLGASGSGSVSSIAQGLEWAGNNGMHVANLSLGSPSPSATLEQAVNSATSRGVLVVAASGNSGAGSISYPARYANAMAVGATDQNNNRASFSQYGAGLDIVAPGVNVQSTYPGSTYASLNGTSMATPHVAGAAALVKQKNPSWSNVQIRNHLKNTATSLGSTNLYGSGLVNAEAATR
# Test: Protease storage stability in liquid formulations at 37° C. (Suc-AAPF-pNA assay)
# Format: biochemical
# Settings: 0.7 wt% Savinase 16.0 L
# Method: The storage stability of protease was assessed at 37° C.
# Base test formulations were manufactured by making base formulations I to V by mixing the components according to Table 1.
# Protease used: Savinase® 16.0L (CAS-No. 9014-01-1, EC-No. 232-752-2) was purchased from Sigma-Aldrich.
# The respective component (a) or comparative compound was added, if applicable, to the respective base formulation in amounts as indicated in Table 1.
# The amount of protease as provided in Table 1 refers to active protein.
# Water was added to accomplish the balance to 100.
# Savinase activity at certain points in time as indicated in Table 2 was be determined by employing Succinyl-Ala-Ala-Pro-Phe-p-nitroanilide (Suc-AAPF-pNA, short AAPF) as substrate. pNA is cleaved from the substrate molecule by proteolytic cleavage, resulting in release of yellow color of free pNA which was determined by measuring OD405. Measurements were done at 20° C.
# The proteolytic activity values provided in Table 3 were calculated referring to the 100% value determined in the reference formulation at the time 0.
# The nomenclature of formulations is as follows: the Roman number before the full stop characterizes the base formulation, the Arabian number the type of compound (A. # compound according to invention (component (a)); (B. #) comparative compound).
# [1] = base formulation II, 2.5 wt% compound, 3 d
# [2] = base formulation II, 2.5 wt% compound, 7 d
# [3] = base formulation II, 2.5 wt% compound, 14 d
# [4] = base formulation II, 2.5 wt% compound, 21 d
# [5] = base formulation II, 2.5 wt% compound, 28 d
# [6] = base formulation II, 2.5 wt% compound, 35 d
# [7] = base formulation II, 2.5 wt% compound, T0
# [8] = base formulation III, 2.0 wt% compound, 3 d
# [9] = base formulation III, 2.0 wt% compound, 7 d
# [10] = base formulation III, 2.0 wt% compound, 14 d
# [11] = base formulation III, 2.0 wt% compound, 21 d
# [12] = base formulation III, 2.0 wt% compound, 28 d
# [13] = base formulation III, 2.0 wt% compound, 35 d
# [14] = base formulation III, 2.0 wt% compound, T0
# [15] = base formulation I, 2.5 wt% compound, 3 d
# [16] = base formulation I, 2.5 wt% compound, 7 d
# [17] = base formulation I, 2.5 wt% compound, 14 d
# [18] = base formulation I, 2.5 wt% compound, 21 d
# [19] = base formulation I, 2.5 wt% compound, 28 d
# [20] = base formulation I, 2.5 wt% compound, 35 d
# [21] = base formulation I, 2.5 wt% compound, T0
Compound,protease activity in the course of time of storage at 37° C. [1],protease activity in the course of time of storage at 37° C. [2],protease activity in the course of time of storage at 37° C. [3],protease activity in the course of time of storage at 37° C. [4],protease activity in the course of time of storage at 37° C. [5],protease activity in the course of time of storage at 37° C. [6],protease activity in the course of time of storage at 37° C. [7],protease activity in the course of time of storage at 37° C. [8],protease activity in the course of time of storage at 37° C. [9],protease activity in the course of time of storage at 37° C. [10],protease activity in the course of time of storage at 37° C. [11],protease activity in the course of time of storage at 37° C. [12],protease activity in the course of time of storage at 37° C. [13],protease activity in the course of time of storage at 37° C. [14],protease activity in the course of time of storage at 37° C. [15],protease activity in the course of time of storage at 37° C. [16],protease activity in the course of time of storage at 37° C. [17],protease activity in the course of time of storage at 37° C. [18],protease activity in the course of time of storage at 37° C. [19],protease activity in the course of time of storage at 37° C. [20],further results
"CCOC(=O)CC(O)(CC(=O)O)C(=O)O (stereo not drawn) [A.6, Monoethylcitrate]",102%,100%,95%,92%,87%,83%,101%,96%,92%,86%,82%,79%,76%,99%,–,–,–,–,–,–,–
"CCOC(=O)CC(O)(CC(=O)OCC)C(=O)OCC [A.1, Triethylcitrate]",100%,96%,93%,89%,83%,78%,100%,98%,94%,91%,87%,84%,81%,100%,96%,93%,89%,83%,79%,72%,"protease activity in the course of time of storage at 37° C. [21]: 100%; protease activity in the course of time of storage at 37° C. (base formulation IV, 2.0 wt% compound, 3 d): 96%; protease activity in the course of time of storage at 37° C. (base formulation IV, 2.0 wt% compound, 7 d): 93%; protease activity in the course of time of storage at 37° C. (base formulation IV, 2.0 wt% compound, 14 d): 88%; protease activity in the course of time of storage at 37° C. (base formulation IV, 2.0 wt% compound, 21 d): 82%; protease activity in the course of time of storage at 37° C. (base formulation IV, 2.0 wt% compound, 28 d): 79%; protease activity in the course of time of storage at 37° C. (base formulation IV, 2.0 wt% compound, 35 d): 74%; protease activity in the course of time of storage at 37° C. (base formulation IV, 2.0 wt% compound, T0): 98%; protease activity in the course of time of storage at 37° C. (base formulation V, 2.0 wt% compound, 3 d): 94%; protease activity in the course of time of storage at 37° C. (base formulation V, 2.0 wt% compound, 7 d): 90%; protease activity in the course of time of storage at 37° C. (base formulation V, 2.0 wt% compound, 14 d): 86%; protease activity in the course of time of storage at 37° C. (base formulation V, 2.0 wt% compound, 21 d): 83%; protease activity in the course of time of storage at 37° C. (base formulation V, 2.0 wt% compound, 28 d): 79%; protease activity in the course of time of storage at 37° C. (base formulation V, 2.0 wt% compound, 35 d): 75%; protease activity in the course of time of storage at 37° C. (base formulation V, 2.0 wt% compound, T0): 97%"
"CCCOC(=O)CC(O)(CC(=O)OCCC)C(=O)OCCC [A.2, Tripropylcitrate]",–,–,–,–,–,–,–,100%,100%,96%,91%,88%,84%,102%,100%,94%,91%,85%,80%,76%,protease activity in the course of time of storage at 37° C. [21]: 101%

# Source: US20210395650A1, “COMPOUNDS STABILIZING HYDROLASES IN LIQUIDS” (BASF SE, priority 2018, published 2021)
